Measured values from US20090298938A1, “USE OF SEMI SYNTHETIC ANALOGUES OF BOSWELLIC ACIDS FOR ANTICANCER ACTIVITY” (COUNCIL OF SCIENTIFIC & INDUSTRIAL RESEARCH, priority 2008, published 2009).

Experiments:
HL-60 cells = assay: Apoptosis induction, annexin V-FITC/PI flow cytometry; format: cell-based, human; details: HL-60, 15 μM, 6 hr
Experimental: FIG. 2. Comparative efficacy of apoptosis induction: Measurement by flow cytometry. The effects of boswellic acid on the relative efficiency of induction of apoptosis and necrosis in HL-60 cells were analyzed by flow cytometry. Cells were incubated with each analog for 6 hrs and stained with annexin V-FITC labeled. The dot plots are representative of one of the two separate experiments. Values in the lower right quadrant represent the apoptotic population in the UR as post-apoptotic and in the UL as necrotic. Where a=compound of formula 1, R3=COCH2CH2CH3, […], R4=[…], b=compound of formula 1, R3=COCH2CH3R1=H, R4=[…], c=compound of formula 1, R3=COCH2CH2CH3, […], R4+R5=O, d=compound of formula 1, […], R3=COCH2CH3, R4=[…], e=compound of formula 1, R3=COCH2CH2CH3, […], R4=[…], f=β-boswellic acid. Compounds of formula 1 where […], R3=COCH2CH3R3=[…]; R3=COCH2CH2CH3, […], R4=[…] and natural β-boswellic acid produced low level of apoptotic cell population (approx. 10%) compared to compound of formula 1 where R3=COCH2CH2CH3, […], R4=[…] (17%), […], R3=COCH2CH3, R4=[…] (30%) and where R3=COCH2CH2CH3, […], R4+R5=O (23%), although the combined apoptotic and post-apoptotic population was about 32% with the last three analogs. Confirmation that boswellic acid analogs are potent inducers of apoptosis may also be obtained from DNA fragmentation assay. During the early events of apoptosis, phospholipid phosphatidyl serine of plasma membrane is externalized, which has very high affinity for annexinV antibody. Effect of a single concentration (15 μM) of each boswellic acid analogs on the relative efficiency of induction of apoptosis and necrosis in HL-60 cells was analyzed by flow cytometry. Cells were incubated with each analog for 6 hr and stained with Annexin V-FITC/PI. Camptothecin at 4 μM was used as positive control. There after, cells were washed and stained with FITC conjugated annexinV antibody and propidium iodide. The cells (10,000) were analysed by flow cytometery (BD, LSR) using ProQuest software.

Hep-2 cells = assay: In vitro cytotoxicity, SRB assay, Hep-2; format: cell-based, human; details: Table 2
Experimental: (§1) The semi-synthetic analogues of formula 1 have been subjected to in vitro cytotoxicity screening in a panel of human cancer cell lines using following methodology. The human cancer cell lines were obtained either from National Center for Cell Science, Pune or National Cancer Institute, Fredrick, Md., USA. Cells were grown in tissue culture flasks in complete growth medium (RPMI-1640 medium with 2 mM glutamine, 100 µg/ml streptomycin, pH 7.4, sterilized by filtration and supplemented with 10% sterilized fetal calf serum and 100 units/ml penicillin before use) at 37° C. in an atmosphere of 5% CO2 and 90% relative humidity in a carbon dioxide incubator. The cells at sub-confluent stage were harvested from flask by treatment with trypsin (0.05% trypsin in PBS containing 0.02% EDTA) and suspended in complete growth medium. Cells with cell viability of more than 97% by trypan blue exclusion technique were used for determination of cytotoxicity.
(§2) Test material were dissolved in DMSO (dimethyl sulphoxide) to obtain a stock solution of 2×10^−2M. The stock solution was serially diluted with complete growth medium containing 50 μg/ml of gentamycin to obtain working test solutions of required concentrations.
(§3) The suspension of human cancer cell lines of required cell density in complete growth medium was prepared and cell suspension (100 μl/well) of each cell line was added to wells of 96-well tissue culture plate. Suitable blanks and controls were also included. The plates were incubated for 24 hrs in a carbon dioxide incubator.
(§4) The working test solutions of different concentrations (100 μl/well) were added after 24 hr incubation. The plates were further incubated for 48-hrs after addition of the test materials. After incubation, the cell growth was stopped by gently layering of 50 μl of TCA (50% trichloroacetic acid) on top of the medium in all the wells. The plates were incubated at 4° C. for one hour to fix the cells attached to bottom of the wells. Liquids of all the wells were gently pipetted out and discarded. The plates were washed five times with distilled water to remove TCA, growth medium, low molecular weight metabolites, serum proteins etc. The plates were air dried.
(§5) Cell growth was measured by staining with sulforhodamine B dye (SRB). The SRB solution (100 μl, 0.4% in 1% acetic acid) was added to each well and the plates were incubated at room temperature for 30 minutes. The unbound SRB was quickly removed by washing the wells five times with 1% acetic acid solution and plates were air dried. Tris buffer (100 μl, 0.01 M, pH 10.4) was added to all the wells and plates were gently stirred for 5 minutes on a mechanical stirrer. The optical density was recorded on ELISA reader at 540 nm.
(§6) Cell growth in the presence of test material was calculated in terms of the percentage of growth inhibition. The in vitro cytotoxicity of four natural boswellic acid i.e. boswellic acid, acetyl boswellic acid, 11-keto-boswellic acids, acetyl-11-ketio-boswellic acid on various cancer cell lines has been examined and typical results are given in the succeeding table. Based on their cytotoxicity profile the analogues of formula 1 were studied for inhibition of cell proliferation by using MTT assay method. […] The induction of apoptosis in HL-60 cells was also validated by generation of DNA fragmentation.
(§7) Assay of cytotoxicity potential of test materials is a primary standard procedure for seeking lead molecules for development of anti-cancer leads. Human cancer cells after trypsinization into single cell suspension were grown in 96-well culture plate for 24 hr. Cells were treated with indicated doses of test analogues and incubated in CO2 incubator for 48 hr. Thereafter, cells were stained with sulforhodamine B dye, and the bound dye was eluted to measure the optical density indicating cell growth in Elisa Reader at 540 nm [Monks et al., 1991]. […]

[1] = tested on: Ehrlich Ascitic Carcinoma solid tumor; assay: Ehrlich ascitic tumor (solid) growth inhibition in mice; format: in vivo, Swiss albino mice; details: 22 mg/kg intraperitoneally, 9 days, evaluated day 13, positive control
Experimental: FIG. 9. Tumor growth inhibition by boswellic acid analogs. Mice treated intraperitoneally with a compound (designated “c”) of formula 1, wherein R3=COCH2CH2CH3, R1=H, R4+R5=O, have shown 22% tumor growth inhibition at a dose of about 50 mg/kg of body weight, and 41% tumor growth inhibition at a dose of 100 mg/kg of body weight.
Swiss albino mice of 6-8 weeks, weighing 18-23 g of single sex were used. For the initiation of experiment, 1×10^7 cells of EAC (Ehrlich Ascitic Carcinoma) cells were transplanted intramuscularly (i.m.) in 32 mice for the development of solid tumors. The day of tumor transplantation was assigned as day 0. Next day (day-1) animals were randomly selected and divided into four groups having equal number of mice in each group of similar body wt. Groups I and II were treated with compound of formula 1 where R3=COCH2CH2CH3, R1=H, R4+R5=O at the dose of 50 mg/kg b, wt and 100 mg/kg b. wt. intraperitoneally, respectively. Group III received 0.2 ml of 0.85% normal saline and served as normal control while group IV serving as positive control was treated with 5-FU (22 mg/kg b. wt.) intraperitoneally. The total duration of treatment was of 9 days. The evaluation of effect of treatment on tumor was done on 13th day. Ehrlich ascites cells (1×10^7) were injected intramuscularly in the right thigh muscles and on the following day animals started receiving treatment intraperitoneally in 0.5% Tween-20 daily at the indicated doses for 9 days. The growth of tumor and the efficacy of compound of formula 1, where R3=COCH2CH2CH3, R1=H, R4+R5=O in inhibiting tumor growth were evaluated on day 13 in terms of the weight of the tumor in treated and control groups count. The determination of solid tumor growth inhibition against EAT was calculated as percent tumor growth regression according to the following: […]

PC-3 cells = assay: In vitro cytotoxicity, SRB assay, PC-3; format: cell-based, human; details: Table 2
Experimental: as §1, §2, §3, §4, §5, §6, §7

[2] = tested on: Colo-205 colon cancer cells; assay: In vitro cytotoxicity, SRB assay, Colo-205; format: cell-based, human; details: Table 2
Experimental: as §1, §2, §3, §4, §5, §6, §7

[3] = tested on: SW-620 colon cancer cells; assay: In vitro cytotoxicity, SRB assay, SW-620; format: cell-based, human; details: Table 2
Experimental: as §1, §2, §3, §4, §5, §6, §7

HT-29 colon cancer cells = assay: In vitro cytotoxicity, SRB assay, HT-29; format: cell-based, human; details: Table 2
Experimental: as §1, §2, §3, §4, §5, §6, §7

CCC(=O)OC1CCC2(C)C(CCC3(C)C2CC=C2C4C(C)C(C)CCC4(C)CCC23C)C1(C)C(=O)O (stereo not drawn) [b] was tested, and the apoptotic cell population (HL-60 cells; listed as R1=H, R3=COCH2CH3R3=R4=H) was “approx. 10%”.

C[C@H]1[C@H](C)CC[C@]2(C)CC[C@]3(C)C(=CC[C@@H]4[C@@]5(C)CC[C@@H](O)[C@](C)(C(=O)O)[C@@H]5CC[C@]43C)[C@H]12 [β-boswellic acid, reference compound] was tested, and the apoptotic cell population (HL-60 cells) was “approx. 10%”.

For O=c1[nH]cc(F)c(=O)[nH]1 [Compound 5-FU, 5-FU, reference compound], the “Growth inhibition % Hep-2” value (Hep-2 cells; Conc. 1 × 10^4) was 5%, the “Growth inhibition % Hep-2” value (Hep-2 cells; Conc. 1 × 10^5) was 14% and the tumor growth inhibition [1] was 56%. The “Growth inhibition % PC-3” value (PC-3 cells; Conc. 1 × 10^4) was 52%, the “Growth inhibition % PC-3” value (PC-3 cells; Conc. 1 × 10^5) was 37% and the “Growth inhibition % Colo-205 Colon” value ([2]; Conc. 1 × 10^4) was 39%. The “Growth inhibition % Colo-205 Colon” value ([2]; Conc. 1 × 10^5) was 43%, the “Growth inhibition % SW-620 Colon” value ([3]; Conc. 1 × 10^4) was 7% and the “Growth inhibition % SW-620 Colon” value ([3]; Conc. 1 × 10^5) was 0%. For the same molecule, the “Growth inhibition % HT-29 Colon” value (HT-29 colon cancer cells; Conc. 1 × 10^4) was 21% and the “Growth inhibition % HT-29 Colon” value (HT-29 colon cancer cells; Conc. 1 × 10^5) was 40%.

In the case of CCC(=O)OC1CCC2(C)C(CCC3(C)C2CC=C2C4C(C)C(C)CCC4(C)CCC23C)C1(C)C(=O)O (stereo not drawn) [d], the “combined apoptotic and post-apoptotic population” value (HL-60 cells) is reported as “about 32%” and the apoptotic cell population (HL-60 cells; listed as R1=H, R3=COCH2CH3, R4=R5=H) is reported as 30%.
